Entries after “also recorded” stand apart in the source; their conditions may differ. Like-named read-outs stand apart in the source and are kept apart here.
Assays:
OVCAR8 = test: MTT cytotoxicity assay, OVCAR8; format: cell-based; details: Homo sapiens, OVCAR-8, Ovarian
Procedure: (§1) It was observed that SU093 was highly cytotoxic for all cell lines tested with IC50 values in the nanomolar range.
(§2) Furthermore, OVCAR8 cells with overexpressed (OV) and knockdown (KD) of GBP1 gene were created (FIG. 3, panel D) and cell viability experiments were performed on GBP1-WT (wild-type), GBP1-OV and GBP1-KD OVCAR8 cells at different doses of SU093.

HCT116 = test: MTT cytotoxicity assay, HCT116; format: cell-based; details: Homo sapiens, HCT-116, Colorectal
Source text: as §1

DU145 = test: MTT cytotoxicity assay, DU145; format: cell-based; details: Homo sapiens, DU-145, Prostate
Source text: as §1

SKOV3 = test: MTT cytotoxicity assay, SKOV3; format: cell-based; details: Homo sapiens, SK-OV-3; SKOV3 ovarian cancer cell line
Source text: (§3) FIG. 3, panels A-E. FIG. 3, panel A illustrates the effects of SU093 on survival of human normal HEK293 cell line and ovarian cancer cell lines OVCAR8 & SKOV3 cells via MTT assay. FIG. 3, panel B illustrates the effect of SU093 on GBP1 and PIM1 expression in OVCAR8 cells. […] FIG. 3, panel D illustrates quantification of overexpression and knockdown of GBP1 gene in stably transfected OVCAR8 cells. FIG. 3, panel E illustrates cytotoxicity of SU093 as evaluated in GBP1-OV, GBP1-WT and GBP1-KD OVCAR8 via MTT assay.
as §2

HEK293 = test: MTT cytotoxicity assay, normal HEK293 cells; format: cell-based
Source text: as §3, §2

GBP1 and PIM1 = test: Immunoblotting of GBP1 and PIM1 expression in OVCAR8 cells; format: cell-based
OVCAR8 cells [1] = test: Cell cycle analysis and cell cycle/cell death regulators in OVCAR8 cells; format: cell-based
Source text: (§4) FIG. 4, panel A illustrates a histogram of cell cycle distribution of propidium iodide (PI)-stained cells. […] FIG. 4, panel C illustrates the effect of SU093 on cell cycle and cell death regulators analyzed by immunostaining. FIG. 4, panel D illustrates mitochondria stained with MitoTracker Red CMXRos and visualized by confocal microscopy indicating mitochondrial dysfunction in OVCAR8 cells. FIG. 4, panel E illustrates the effect of SU093 on active mitochondrial mass in OVCAR8 cells.
as §2
It has been previously established that GBP1 expression has a definitive role in the resistance towards radiation therapy and taxane-based chemotherapy. The GBP1 inhibitor SU093 was tested in combination with radiation and paclitaxel (a well known taxane-based chemotherapeutic drug) for its potential in overcoming radiation therapy and taxane resistance. […] A cell cycle analysis experiment for radiation was performed with SU093 and combination treatment (FIG. 5, panel B). […] One of the mechanisms through which a drug can sensitize the effect of radiation is its ability to block G2/M phase of the cell cycle (Leonard, C. E.; Chan, D. C.; Chou, T. C.; Kumar, R.; Bunn, P. A., Paclitaxel enhances in vitro radiosensitivity of squamous carcinoma cell lines of the head and neck. Cancer Research 1996, 56 (22), 5198-5204). […]

OVCAR8 cells [2] = test: Active mitochondrial mass (MitoTracker Red CMXRos) in OVCAR8 cells; format: cell-based
Source text: as §4, §2

OVCAR8-PRes cells = test: Growth inhibition of paclitaxel-resistant OVCAR8-PRes cells; format: cell-based
Source text: The cytotoxic effect of SU093 and paclitaxel combination treatment was also studied (FIG. 5, panel E).

GBP1 [3] = test: Immunoblotting and cycloheximide chase of GBP1 protein in SCC-90 HNC cells; format: cell-based
Source text: (§5) The potential for GBP1 inhibition and radiosensitzation in head and neck cancer cells was also investigated.

SCC-90 cells [4] = test: MTT cell viability in SCC-90 cells with GBP1 overexpression and knockdown; format: cell-based; details: SCC-90, SU093 0.5-1000 nM, 48 h
Source text: as §5

GBP1 [5] = test: Confocal microscopy of GBP1 and β-tubulin in SCC-90 cells; format: cell-based; details: SCC-90, SU093 50 nM, 6 h
Source text: as §5

SCC-90 cells [6] = test: Clonogenic radiosensitization assay in SCC-90 cells; format: cell-based; details: SCC-90, SU093 50 nM then radiation
Source text: as §5

SCC-90 cells [7] = test: Cell cycle analysis of SCC-90 cells, SU093/radiation combination; format: cell-based; details: SCC-90, SU093 50 nM and/or 10 Gy, 24 h
Source text: as §5

B2M = B2M expression in SCC-90 cells; format: cell-based; details: SCC-90 cells treated with SU093
Source text: Down-regulation of Major Histocompatibility Complex class I molecules (MHC-I) expression is a widespread phenomenon used by tumor cells to escape antitumor T-cell-mediated immune responses. Reduction in B2-microglobulin (B2M, a molecule associated with MHC-I) helps cancer cells to hide them from immune system (Hicklin, D. J.; Marincola, F. M.; Ferrone, S., HLA class I antigen downregulation in human cancers: T-cell immunotherapy revives an old story. Molecular Medicine Today 1999, S (4), 178-186.) In experiments conducted herein, reduced expression B2M in GBP1-OV cells was observed (FIG. 1, panel F).

[8] = Maximum tolerable dose study, 14 days IP; format: in vivo, mice
Procedure: FIG. 7, panel A illustrates in vivo PK studies, C57BL/6 mice. Drug concentration in plasma was quantified at different time points using LCMS after a single IP injection of SU093. FIG. 7, panel B illustrates the drug concentration in harvested ovaries and liver of C57BL/6 mice after 14 days of administration with SU093 (100 mg/kg) by daily IP injection.
To determine the maximum tolerable dose of an exemplary GBP1 inhibitor, SU093 was administered to C57BL6 female mice (n=10) intraperitoneally at 100 mg/kg for 14 days. […] At the end of the 14th day, mice were sacrificed and organs were harvested.

For `COc1ccc2c(c1)N(CCO)C1=C(C(=O)OC1)C2c1ccccc1` (stereo not shown) [SU093], the IC50 (OVCAR8) was 2.49 nM, the IC50 (HCT116) was 1.24 nM and the IC50 (DU145) was 1.12 nM. The IC50 (SKOV3) was 2.68 nM, the “cytotoxicity for normal cell line” value (HEK293) was “no cytotoxicity” and the “GBP1 and PIM1 expression” value (GBP1 and PIM1) was “inhibits GBP1 and PIM1 expressions in a dose-dependent manner”. For the same compound, the cell cycle distribution (OVCAR8 cells [1]; OVCAR8, SU093 alone) was “G1 phase arrest; also recorded: progression from G1 to S phase was markedly inhibited”, the “cell cycle distribution, combination of SU093 and radiation” value (OVCAR8 cells [1]; OVCAR8, combination with radiation) was “G2/M phase arrest leading to apoptosis; also recorded: G2/M phase arrest leading to apoptotic cell death” and the “cell cycle and cell death regulators” value (OVCAR8 cells [1]; OVCAR8, cyclin D1, CDK2, Bax) was “reduction in cyclin D1 and CDK2 levels and elevation of the cell death regulator Bax”. For the same compound, the active mitochondrial mass (OVCAR8 cells [2]) was “significantly diminished active mitochondrial mass”, the inhibition at 0.015 µM (OVCAR8-PRes cells; 15 nM SU093, read-out: inhibition in the cell growth) was 50% and the inhibition at 0.015 µM (OVCAR8-PRes cells; SU093 (15 nM) and paclitaxel (2 μM), read-out: growth inhibition, combination treatment) was 80%. For the same compound, the “GBP1 protein degradation, cyclohexamide chase” value (GBP1 [3]; SCC-90) was “degradation of GBP1 protein and reduction of its half-life”, the GBP1 protein expression (GBP1 [3]; SCC-90, western blot, 24 h) was “inhibition in GBP1 expression; also recorded: inhibited GBP1 protein expression” and the “cytotoxic effect in GBP1 OV and KD cells” value (SCC-90 cells [4]) was “GBP1 dependent cytotoxic effect”. The “GBP1 nuclear translocation and β-tubulin expression” value (GBP1 [5]) was “inhibits the nuclear translocation of GBP1 protein and reduces the tubulin expression; also recorded: blocking its nuclear translocation and reducing β-tubulin expression”, the “radiation sensitizing effect, clonogenic assay” value (SCC-90 cells [6]) was “radiosensitization effect; also recorded: significant radiation sensitizing effect” and the “cell cycle, SU093/radiation combination” value (SCC-90 cells [7]) was “G2/M phase arrest followed by cell death; also recorded: increase in G2/M phase arrest, followed by apoptosis”. For the same compound, the B2M expression (B2M) was “induced expression of B2M”, the CHEM-22 panel analysis ([8]; 100 mg/kg for 14 days) was “only acute liver toxicity” and the “weight loss or sign of toxicity” value ([8]; C57BL6 female mice, 100 mg/kg IP, 14 days) was “no significant weight loss or sign of toxicity”. It also gave a concentration at 14 days ([8]; female, C57BL/6, mouse, ovaries, intraperitoneal, 100 mg/kg daily IP, after 14 days, LCMS, read-out: concentration in the target organ (ovaries)) of 3730 ng/mL.
